Patent publication US20070173462A1, “Treatment of diseases associated with the use of antibiotics” (Optimer Pharmaceuticals, Inc., priority 2004, published 2007)
Values after ≈ are worked out from the molar mass of the structure shown.

Columns and labels:
[1] = tested on: C. glycolicum; test: microbe, parasite or virus in culture; format: cell-based; details: clinical isolates, n=9
[2] = tested on: Veillonella sp.; test: microbe, parasite or virus in culture; format: cell-based; details: Veillonella; clinical gastrointestinal isolates, n=10
[3] = tested on: Enterococcus sp.; test: microbe, parasite or virus in culture; format: cell-based; details: clinical gastrointestinal isolates, n=22
[4] = tested on: Enterobacter sp.; test: microbe, parasite or virus in culture; format: cell-based; details: Enterobacter; clinical gastrointestinal isolates, n=20
[5] = tested on: Eschericia coli; test: organism not typed; format: cell-based; details: clinical gastrointestinal isolates, n=10
[6] = tested on: Bacteroides fragilis group; test: microbe, parasite or virus in culture; format: cell-based; details: clinical gastrointestinal isolates, n=54
[7] = tested on: Stephylococcus sp.; test: organism not typed; format: cell-based; details: clinical gastrointestinal isolates, n=19
[8] = tested on: Other anaerobic Gram negative rods; test: organism not typed; format: cell-based; details: clinical gastrointestinal isolates, n=51
[9] = tested on: Streptococcus sp.; test: microbe, parasite or virus in culture; format: cell-based; details: clinical gastrointestinal isolates, n=9
[10] = tested on: Pseudomonas aeruginosa; test: microbe, parasite or virus in culture; format: cell-based; details: clinical gastrointestinal isolates, n=10
[11] = tested on: Klebsiella sp.; test: microbe, parasite or virus in culture; format: cell-based; details: clinical gastrointestinal isolates, n=10
[12] = tested on: toxigenic C. difficile; test: Hamster model of clindamycin-induced Clostridium difficile associated diarrhea/colitis; format: in vivo, Syrian hamsters; details: oral treatment for 7 days; untreated infection uniformly fatal between days two and six
Protocol: Animals were treated with two oral doses of clindamycin at 100 mg/kg. Three days after the second dose of clindamycin, they were inoculated with toxigenic C. difficile spores. […] Animals were observed daily for the presence or absence of diarrhea. Necropsies were performed on some animals that died during the experiment, and cecal contents were assayed for C. difficile toxin A. Hamsters were monitored for 20 days, and the cumulative mortality during this period was recorded (FIG. 1).

[13] = tested on: Other Clostridium sp.; test: microbe, parasite or virus in culture; format: cell-based; details: clinical isolates, n=11
[14] = tested on: Clostridium difficile; test: MIC, 207 clinical isolates of C. difficile; format: cell-based; details: clinical isolates, n=207
Source text: Compound I was additionally tested against anaerobic clinical isolates and against aerobic bacteria. […] The compound was also active against clinical strains of Staphylococcus sp. and Enterococcus sp.

[15] = tested on: C. clostridioforme; test: organism not typed; format: cell-based; details: clinical isolates, n=5
[16] = tested on: C. ramosum; test: microbe, parasite or virus in culture; format: cell-based; details: clinical isolates, n=10
[17] = tested on: Anaerobic Gram positive cocci; test: organism not typed; format: cell-based; details: clinical gastrointestinal isolates, n=49
[18] = tested on: Proteus mirabilis; test: microbe, parasite or virus in culture; format: cell-based; details: clinical gastrointestinal isolates, n=10
[19] = tested on: C. paraputrificum; test: microbe, parasite or virus in culture; format: cell-based; details: clinical isolates, n=10
[20] = tested on: C. difficile; test: microbe, parasite or virus in culture; format: cell-based; details: clinical isolates, n=23
[21] = tested on: C. bolteae; test: microbe, parasite or virus in culture; format: cell-based; details: clinical isolates, n=6
[22] = tested on: C. perfringens; test: microbe, parasite or virus in culture; format: cell-based
[23] = tested on: C. sordellii; test: microbe, parasite or virus in culture; format: cell-based; details: clinical isolates, n=5
[24] = tested on: C. innocuum; test: microbe, parasite or virus in culture; format: cell-based; details: clinical isolates, n=9
[25] = tested on: Non-spore forming Gram positive rods; test: organism not typed; format: cell-based; details: clinical gastrointestinal isolates, n=64
[26] = tested on: Streptococcus milleri group; test: microbe, parasite or virus in culture; format: cell-based; details: clinical gastrointestinal isolates, n=14

**Q.** For `CN[C@H](CC(C)C)C(=O)N[C@H]1C(=O)N[C@@H](CC(N)=O)C(=O)N[C@H]2C(=O)N[C@H]3C(=O)N[C@H](C(=O)N[C@H](C(=O)O)c4cc(O)cc(O)c4-c4cc3ccc4O)[C@H](O)c3ccc(c(Cl)c3)Oc3cc2cc(c3O[C@@H]2O[C@H](CO)[C@@H](O)[C@H](O)[C@H]2O[C@H]2C[C@](C)(N)[C@H](O)[C@H](C)O2)Oc2ccc(cc2Cl)[C@H]1O` [Vancomycin], which MIC50 ([1]; Terrisporobacter glycolicus) is on record?
**A.** Its MIC50 is 1 µg/mL (≈ 0.69 µM).

**Q.** And the MIC90 ([1]; Terrisporobacter glycolicus)?
**A.** The MIC90 was 1 µg/mL (≈ 0.69 µM).

**Q.** What about the “Range (MIC)” value [1] of the same compound?
**A.** The value was 0.5-1^ μg/mL.

**Q.** What about the MIC50 [2] of the same compound?
**A.** Its MIC50 is 512 µg/mL (≈ 353 µM).

**Q.** What about the MIC90 [2] of the same compound?
**A.** The MIC90 was 512 µg/mL (≈ 353 µM).

**Q.** What about the MIC50 ([3]; Enterococcus) of the same compound?
**A.** The MIC50 was 1 µg/mL (≈ 0.69 µM).

**Q.** What about the MIC90 ([3]; Enterococcus) of the same compound?
**A.** Its MIC90 is 4 µg/mL (≈ 2.76 µM).

**Q.** What about the “Range (MIC)” value [3] of the same compound?
**A.** Its value is 0.5-4 ^ μg/mL.

**Q.** And the MIC50 [4]?
**A.** Its MIC50 is over 1020 µg/mL.

**Q.** And the MIC90 [4]?
**A.** Its MIC90 is over 1020 µg/mL.

**Q.** What about the MIC50 [5] of the same compound?
**A.** Its MIC50 is 512 µg/mL (≈ 353 µM).

**Q.** What about the MIC90 [5] of the same compound?
**A.** Its MIC90 is over 1020 µg/mL.

**Q.** What about the MIC50 ([6]; Bacteroides fragilis) of the same compound?
**A.** Its MIC50 is 64 µg/mL (≈ 44.2 µM).

**Q.** And the MIC90 ([6]; Bacteroides fragilis)?
**A.** Its MIC90 is 128 µg/mL (≈ 88.3 µM).

**Q.** What about the “Range (MIC)” value [6] of the same compound?
**A.** Its value is 16 to 256 µg/mL.

**Q.** And the MIC50 [7]?
**A.** The MIC50 was 2 µg/mL (≈ 1.38 µM).

**Q.** What about the MIC90 [7] of the same compound?
**A.** The MIC90 was 4 µg/mL (≈ 2.76 µM).

**Q.** And the “Range (MIC)” value [7]?
**A.** The value was 1 to 4 µg/mL.

**Q.** What about the MIC50 [8] of the same compound?
**A.** Its MIC50 is 512 µg/mL (≈ 353 µM).

**Q.** What about the MIC90 [8] of the same compound?
**A.** The MIC90 was over 1020 µg/mL.

**Q.** What about the MIC50 ([9]; Streptococcus) of the same compound?
**A.** The MIC50 was 0.5 µg/mL (≈ 0.345 µM).

**Q.** And the MIC90 ([9]; Streptococcus)?
**A.** Its MIC90 is 1 µg/mL (≈ 0.69 µM).

**Q.** And the “Range (MIC)” value [9]?
**A.** The value was 0.5 to 1 µg/mL.

**Q.** And the MIC50 [10]?
**A.** Its MIC50 is over 1020 µg/mL.

**Q.** And the MIC90 [10]?
**A.** Its MIC90 is over 1020 µg/mL.

**Q.** And the MIC50 ([11]; Klebsiella)?
**A.** The MIC50 was over 1020 µg/mL.

**Q.** And the MIC90 ([11]; Klebsiella)?
**A.** The MIC90 was over 1020 µg/mL.

**Q.** And the “Range (MIC)” value [11]?
**A.** The value was over 1024 µg/mL.

**Q.** And the “protection from infection (cumulative mortality over 20 days)” value [12]?
**A.** Its value is “protected the animals from infection”.

**Q.** What about the MIC50 ([13]; Clostridium) of the same compound?
**A.** Its MIC50 is 1 µg/mL (≈ 0.69 µM).

**Q.** And the MIC90 ([13]; Clostridium)?
**A.** The MIC90 was 16 µg/mL (≈ 11 µM).

**Q.** And the “Range (MIC)” value [13]?
**A.** Its value is 1 to 64 µg/mL.

**Q.** What about the MIC90 ([14]; Clostridioides difficile) of the same compound?
**A.** Its MIC90 is 0.5 µg/mL (≈ 0.345 µM).

**Q.** And the MIC50 ([14]; Clostridioides difficile, read-out: MIC50)?
**A.** The MIC50 was 0.5 µg/mL (≈ 0.345 µM).

**Q.** And the “Range (MIC)” value [14]?
**A.** Its value is 0.0156-0.5.

**Q.** And the MIC50 [15]?
**A.** Its MIC50 is 1 µg/mL (≈ 0.69 µM).

**Q.** What about the MIC90 [15] of the same compound?
**A.** The MIC90 was 8 µg/mL (≈ 5.52 µM).

**Q.** And the “Range (MIC)” value [15]?
**A.** Its value is 1 to 8 µg/mL.

**Q.** What about the MIC50 ([16]; Thomasclavelia ramosa) of the same compound?
**A.** Its MIC50 is 4 µg/mL (≈ 2.76 µM).

**Q.** What about the MIC90 ([16]; Thomasclavelia ramosa) of the same compound?
**A.** The MIC90 was 8 µg/mL (≈ 5.52 µM).

**Q.** What about the “Range (MIC)” value [16] of the same compound?
**A.** Its value is 4 to 8 µg/mL.

**Q.** And the MIC50 [17]?
**A.** Its MIC50 is 1 µg/mL (≈ 0.69 µM).

**Q.** And the MIC90 [17]?
**A.** The MIC90 was 8 µg/mL (≈ 5.52 µM).

**Q.** And the MIC50 ([18]; Proteus mirabilis)?
**A.** Its MIC50 is over 1020 µg/mL.

**Q.** And the MIC90 ([18]; Proteus mirabilis)?
**A.** The MIC90 was over 1020 µg/mL.

**Q.** And the “Range (MIC)” value [18]?
**A.** The value was over 1024 µg/mL.

**Q.** What about the MIC50 ([19]; Clostridium paraputrificum) of the same compound?
**A.** Its MIC50 is 2 µg/mL (≈ 1.38 µM).

**Q.** What about the MIC90 ([19]; Clostridium paraputrificum) of the same compound?
**A.** Its MIC90 is 2 µg/mL (≈ 1.38 µM).

**Q.** And the “Range (MIC)” value [19]?
**A.** Its value is 1 to 2 µg/mL.

**Q.** What about the MIC50 ([20]; Clostridioides difficile) of the same compound?
**A.** Its MIC50 is 1 µg/mL (≈ 0.69 µM).

**Q.** What about the MIC90 ([20]; Clostridioides difficile) of the same compound?
**A.** The MIC90 was 2 µg/mL (≈ 1.38 µM).

**Q.** What about the “Range (MIC)” value [20] of the same compound?
**A.** The value was 0.5-4^ μg/mL.

**Q.** What about the MIC50 ([21]; Enterocloster bolteae) of the same compound?
**A.** Its MIC50 is 16 µg/mL (≈ 11 µM).

**Q.** And the MIC90 ([21]; Enterocloster bolteae)?
**A.** Its MIC90 is 16 µg/mL (≈ 11 µM).

**Q.** And the “Range (MIC)” value [21]?
**A.** The value was 1 to 16 µg/mL.

**Q.** What about the “Range (MIC)” value [22] of the same compound?
**A.** Its value is 0.5-1^ μg/mL.

**Q.** What about the MIC50 ([22]; Clostridium perfringens) of the same compound?
**A.** The MIC50 was 1 µg/mL (≈ 0.69 µM).

**Q.** And the MIC90 ([22]; Clostridium perfringens)?
**A.** Its MIC90 is 1 µg/mL (≈ 0.69 µM).

**Q.** And the MIC50 ([23]; Paraclostridium sordellii)?
**A.** Its MIC50 is 1 µg/mL (≈ 0.69 µM).

**Q.** And the MIC90 ([23]; Paraclostridium sordellii)?
**A.** The MIC90 was 1 µg/mL (≈ 0.69 µM).

**Q.** What about the “Range (MIC)” value [23] of the same compound?
**A.** Its value is 1 µg/mL.

**Q.** What about the MIC50 ([24]; [Clostridium] innocuum) of the same compound?
**A.** Its MIC50 is 16 µg/mL (≈ 11 µM).

**Q.** What about the MIC90 ([24]; [Clostridium] innocuum) of the same compound?
**A.** The MIC90 was 16 µg/mL (≈ 11 µM).

**Q.** And the “Range (MIC)” value [24]?
**A.** The value was 8 to 16 µg/mL.

**Q.** What about the MIC50 [25] of the same compound?
**A.** The MIC50 was 128 µg/mL (≈ 88.3 µM).

**Q.** What about the MIC90 [25] of the same compound?
**A.** The MIC90 was over 1020 µg/mL.

**Q.** And the MIC50 ([26]; Streptococcus milleri)?
**A.** Its MIC50 is 1 µg/mL (≈ 0.69 µM).

**Q.** And the MIC90 ([26]; Streptococcus milleri)?
**A.** Its MIC90 is 1 µg/mL (≈ 0.69 µM).

**Q.** What about the “Range (MIC)” value [26] of the same compound?
**A.** Its value is 1 µg/mL.
